Patent publication US20210127673A1, “HERBICIDES” (SYNGENTA PARTICIPATIONS AG, priority 2016, published 2021)

How the values were obtained:
Format in all cases: in vivo
Conditions in all cases: evaluated after 13 days
[1] = test system: Triticum aestivium (TRZAW); assay: Pre-emergence herbicidal activity, Triticum aestivium; design: key: 5=total damage to plant; 0=no damage to plant
In short: (§1)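 Pots of seeds were sprayed one day after sowing (pre-emergence) with compound in acetone/water (50:50) plus 0.5% Tween 20, then grown in a glasshouse at 24/16 °C day/night, 14 h light, 65% humidity. Damage scored 0–5 (5 = total damage) after 13 days.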

Avena fatua (AVEFA) [2] = assay: Pre-emergence herbicidal activity, Avena fatua; design: key: 5=total damage to plant; 0=no damage to plant
In short: as §1

[3] = test system: Alopecurus myosuroides (ALOMY); assay: Pre-emergence herbicidal activity, Alopecurus myosuroides; design: key: 5=total damage to plant; 0=no damage to plant
In short: as §1

[4] = test system: Echinochloa crus-galli (ECHCG); assay: Pre-emergence herbicidal activity, Echinochloa crus-galli; design: key: 5=total damage to plant; 0=no damage to plant
In short: as §1

Lolium perenne (LOLPE) [5] = assay: Pre-emergence herbicidal activity, Lolium perenne; design: key: 5=total damage to plant; 0=no damage to plant
In short: as §1

Setaria faberi (SETFA) [6] = assay: Pre-emergence herbicidal activity, Setaria faberi; design: key: 5=total damage to plant; 0=no damage to plant
In short: as §1

[7] = test system: Triticum aestivium (TRZAW); assay: Post-emergence herbicidal activity, Triticum aestivium; design: key: 5=total damage to plant; 0=no damage to plant
In short: (§2)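 Pot-grown plants in standard soil were sprayed 8 days after sowing with active ingredient in acetone/water (50:50) containing 0.5% Tween 20. Glasshouse at 24/16 °C day/night, 14 h light, 65% humidity, watered twice daily. Damage scored after 13 days on 0 (none) to 5 (total) scale.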

Avena fatua (AVEFA) [8] = assay: Post-emergence herbicidal activity, Avena fatua
In short: as §2

[9] = test system: Alopecurus myosuroides (ALOMY); assay: Post-emergence herbicidal activity, Alopecurus myosuroides; design: key: 5=total damage to plant; 0=no damage to plant
In short: as §2

[10] = test system: Echinochloa crus-galli (ECHCG); assay: Post-emergence herbicidal activity, Echinochloa crus-galli; design: key: 5=total damage to plant; 0=no damage to plant
In short: as §2

Lolium perenne (LOLPE) [11] = assay: Post-emergence herbicidal activity, Lolium perenne; design: key: 5=total damage to plant; 0=no damage to plant
In short: as §2

Setaria faberi (SETFA) [12] = assay: Post-emergence herbicidal activity, Setaria faberi; design: key: 5=total damage to plant; 0=no damage to plant
In short: as §2

SMILES | Control of TRAZW after pre-emergence application (score 0-5) ([1]; 250 g/ha) | Control of AVEFA after pre-emergence application (score 0-5) (Avena fatua (AVEFA) [2]; 250 g/ha) | Control of ALOMY after pre-emergence application (score 0-5) ([3]; 250 g/ha) | Control of ECHCG after pre-emergence application (score 0-5) ([4]; 250 g/ha) | Control of LOLPE after pre-emergence application (score 0-5) (Lolium perenne (LOLPE) [5]; 250 g/ha) | Control of SETFA after pre-emergence application (score 0-5) (Setaria faberi (SETFA) [6]; 250 g/ha) | Control of TRAZW after post-emergence application (score 0-5) ([7]; 250 g/ha) | Control of AVEFA after post-emergence application (score 0-5) (Avena fatua (AVEFA) [8]; 250 g/ha) | Control of ALOMY after post-emergence application (score 0-5) ([9]; 250 g/ha) | Control of ECHCG after post-emergence application (score 0-5) ([10]; 250 g/ha) | Control of LOLPE after post-emergence application (score 0-5) (Lolium perenne (LOLPE) [11]; 250 g/ha) | Control of SETFA after post-emergence application (score 0-5) (Setaria faberi (SETFA) [12]; 250 g/ha) | also measured
O=C(Nc1ccc(-c2cncc(F)c2)nc1C(F)(F)F)OCCC(F)(F)F [Compound B96] | 0 | 1 | 0 | 4 | 1 | 5 | 0 | 3 | 0 | 5 | 2 | 5 | –
O=C(NCc1cccnc1)Nc1ccc(-c2cncc(F)c2)nc1C(F)(F)F [Compound B97] | 0 | 0 | 0 | 0 | 0 | 0 | 0 | 2 | 0 | 1 | 1 | 1 | –
CSCCCNC(=O)Nc1ccc(-c2cncc(F)c2)nc1C(F)(F)F [Compound B98] | 0 | 1 | 0 | 1 | 1 | 4 | 0 | 3 | 0 | 2 | 0 | 5 | –
C#CC(C)(C)NC(=O)Nc1ccc(-c2cncc(F)c2)nc1C(F)(F)F [Compound B102] | – | – | – | – | – | – | – | – | – | – | – | – | Control of TRAZW after pre-emergence application (score 0-5) ([1]; 1000 g/ha): 0; Control of AVEFA after pre-emergence application (score 0-5) (Avena fatua (AVEFA) [2]; 1000 g/ha): 3; Control of ALOMY after pre-emergence application (score 0-5) ([3]; 1000 g/ha): 0; Control of ECHCG after pre-emergence application (score 0-5) ([4]; 1000 g/ha): 4; Control of LOLPE after pre-emergence application (score 0-5) (Lolium perenne (LOLPE) [5]; 1000 g/ha): 2; Control of SETFA after pre-emergence application (score 0-5) (Setaria faberi (SETFA) [6]; 1000 g/ha): 5; Control of TRAZW after post-emergence application (score 0-5) ([7]; 1000 g/ha): 1; Control of AVEFA after post-emergence application (score 0-5) (Avena fatua (AVEFA) [8]; 1000 g/ha): 4; Control of ALOMY after post-emergence application (score 0-5) ([9]; 1000 g/ha): 1; Control of ECHCG after post-emergence application (score 0-5) ([10]; 1000 g/ha): 5; Control of LOLPE after post-emergence application (score 0-5) (Lolium perenne (LOLPE) [11]; 1000 g/ha): 3; Control of SETFA after post-emergence application (score 0-5) (Setaria faberi (SETFA) [12]; 1000 g/ha): 5
O=C(NCC1CC1)Nc1ccc(-c2cncc(F)c2)nc1C(F)(F)F [Compound B104] | 0 | 0 | 0 | 2 | 1 | 5 | 0 | 3 | 1 | 3 | 1 | 5 | –
